± gives the expanded uncertainty stated by the source.
Experiment: xn = mol fraction of the nth substance listed
Details: 81.5 kPa, Liquid

SMILES: C[S+](C)[O-] [dimethyl sulfoxide] + CC#N
- mass density (293.15 K, x2 = 0): 1100.41 ± 0.34 kg/m3
- mass density (293.15 K, x2 = 0.0563): 1087.32 ± 0.32 kg/m3
- mass density (293.15 K, x2 = 0.1195): 1072.32 ± 0.29 kg/m3
- mass density (293.15 K, x2 = 0.1751): 1058.54 ± 0.26 kg/m3
- mass density (293.15 K, x2 = 0.2996): 1025.83 ± 0.2 kg/m3
- mass density (293.15 K, x2 = 0.3723): 1005.56 ± 0.16 kg/m3
- mass density (293.15 K, x2 = 0.4529): 981.91 ± 0.18 kg/m3
- mass density (293.15 K, x2 = 0.5273): 959 ± 0.21 kg/m3
- mass density (293.15 K, x2 = 0.579): 942.39 ± 0.23 kg/m3
- mass density (293.15 K, x2 = 0.6896): 904.94 ± 0.29 kg/m3
- mass density (293.15 K, x2 = 0.7579): 880.41 ± 0.32 kg/m3
- mass density (293.15 K, x2 = 0.8337): 851.62 ± 0.37 kg/m3
- mass density (293.15 K, x2 = 0.933): 811.3 ± 0.43 kg/m3
- mass density (303.15 K, x2 = 0): 1090.37 ± 0.32 kg/m3
- mass density (303.15 K, x2 = 0.0563): 1077.27 ± 0.3 kg/m3
- mass density (303.15 K, x2 = 0.1195): 1062.27 ± 0.27 kg/m3
- mass density (303.15 K, x2 = 0.1751): 1048.48 ± 0.24 kg/m3
- mass density (303.15 K, x2 = 0.2996): 1015.69 ± 0.18 kg/m3
- mass density (303.15 K, x2 = 0.3723): 995.38 ± 0.16 kg/m3
- mass density (303.15 K, x2 = 0.4529): 971.68 ± 0.19 kg/m3
- mass density (303.15 K, x2 = 0.5273): 948.69 ± 0.23 kg/m3
- mass density (303.15 K, x2 = 0.579): 932.08 ± 0.25 kg/m3
- mass density (303.15 K, x2 = 0.6896): 894.48 ± 0.3 kg/m3
- mass density (303.15 K, x2 = 0.7579): 869.88 ± 0.34 kg/m3
- mass density (303.15 K, x2 = 0.8337): 841 ± 0.38 kg/m3
- mass density (303.15 K, x2 = 0.933): 800.6 ± 0.44 kg/m3
- mass density (313.15 K, x2 = 0): 1080.34 ± 0.31 kg/m3
- mass density (313.15 K, x2 = 0.0563): 1067.22 ± 0.28 kg/m3
- mass density (313.15 K, x2 = 0.1195): 1052.21 ± 0.25 kg/m3
- mass density (313.15 K, x2 = 0.1751): 1038.38 ± 0.23 kg/m3
- mass density (313.15 K, x2 = 0.2996): 1005.54 ± 0.17 kg/m3
- mass density (313.15 K, x2 = 0.3723): 985.18 ± 0.18 kg/m3
- mass density (313.15 K, x2 = 0.4529): 961.4 ± 0.21 kg/m3
- mass density (313.15 K, x2 = 0.5273): 938.36 ± 0.24 kg/m3
- mass density (313.15 K, x2 = 0.579): 921.68 ± 0.26 kg/m3
- mass density (313.15 K, x2 = 0.6896): 883.96 ± 0.32 kg/m3
- mass density (313.15 K, x2 = 0.7579): 859.27 ± 0.36 kg/m3
- mass density (313.15 K, x2 = 0.8337): 830.29 ± 0.4 kg/m3
- mass density (313.15 K, x2 = 0.933): 789.76 ± 0.46 kg/m3
- mass density (323.15 K, x2 = 0): 1070.3 ± 0.29 kg/m3
- mass density (323.15 K, x2 = 0.0563): 1057.17 ± 0.27 kg/m3
- mass density (323.15 K, x2 = 0.1195): 1042.11 ± 0.24 kg/m3
- mass density (323.15 K, x2 = 0.1751): 1028.38 ± 0.21 kg/m3
- mass density (323.15 K, x2 = 0.2996): 995.35 ± 0.17 kg/m3
- mass density (323.15 K, x2 = 0.3723): 974.94 ± 0.19 kg/m3
- mass density (323.15 K, x2 = 0.4529): 951.09 ± 0.22 kg/m3
- mass density (323.15 K, x2 = 0.5273): 927.96 ± 0.26 kg/m3
- mass density (323.15 K, x2 = 0.579): 911.22 ± 0.28 kg/m3
- mass density (323.15 K, x2 = 0.6896): 873.36 ± 0.34 kg/m3
- mass density (323.15 K, x2 = 0.7579): 848.57 ± 0.37 kg/m3
- mass density (323.15 K, x2 = 0.8337): 819.48 ± 0.41 kg/m3
- mass density (323.15 K, x2 = 0.933): 778.79 ± 0.48 kg/m3
- mass density (333.15 K, x2 = 0): 1060.27 ± 0.27 kg/m3
- mass density (333.15 K, x2 = 0.0563): 1047.11 ± 0.25 kg/m3
- mass density (333.15 K, x2 = 0.1195): 1032.03 ± 0.22 kg/m3
- mass density (333.15 K, x2 = 0.1751): 1018.15 ± 0.19 kg/m3
- mass density (333.15 K, x2 = 0.2996): 985.14 ± 0.18 kg/m3
- mass density (333.15 K, x2 = 0.3723): 964.64 ± 0.21 kg/m3
- mass density (333.15 K, x2 = 0.4529): 940.71 ± 0.24 kg/m3
- mass density (333.15 K, x2 = 0.5273): 917.5 ± 0.27 kg/m3
- mass density (333.15 K, x2 = 0.579): 900.68 ± 0.3 kg/m3
- mass density (333.15 K, x2 = 0.6896): 862.66 ± 0.35 kg/m3
- mass density (333.15 K, x2 = 0.7579): 837.77 ± 0.39 kg/m3
- mass density (333.15 K, x2 = 0.8337): 808.55 ± 0.43 kg/m3
- mass density (333.15 K, x2 = 0.933): 767.68 ± 0.49 kg/m3

SMILES: C[S+](C)[O-] [dimethyl sulfoxide] + O
- mass density (293.15 K, x2 = 0): 1100.41 ± 0.34 kg/m3
- mass density (293.15 K, x2 = 0.0568): 1100.94 ± 0.34 kg/m3
- mass density (293.15 K, x2 = 0.1605): 1101.91 ± 0.33 kg/m3
- mass density (293.15 K, x2 = 0.2252): 1102.54 ± 0.32 kg/m3
- mass density (293.15 K, x2 = 0.3187): 1103.26 ± 0.32 kg/m3
- mass density (293.15 K, x2 = 0.3953): 1103.54 ± 0.31 kg/m3
- mass density (293.15 K, x2 = 0.4582): 1103.48 ± 0.31 kg/m3
- mass density (293.15 K, x2 = 0.5473): 1102.05 ± 0.3 kg/m3
- mass density (293.15 K, x2 = 0.6473): 1097.2 ± 0.29 kg/m3
- mass density (293.15 K, x2 = 0.7213): 1089.55 ± 0.27 kg/m3
- mass density (293.15 K, x2 = 0.7997): 1075.48 ± 0.25 kg/m3
- mass density (293.15 K, x2 = 0.8828): 1051.12 ± 0.21 kg/m3
- mass density (293.15 K, x2 = 0.9632): 1016.98 ± 0.15 kg/m3
- mass density (303.15 K, x2 = 0): 1090.37 ± 0.32 kg/m3
- mass density (303.15 K, x2 = 0.0568): 1090.97 ± 0.32 kg/m3
- mass density (303.15 K, x2 = 0.1605): 1092.1 ± 0.31 kg/m3
- mass density (303.15 K, x2 = 0.2252): 1092.83 ± 0.31 kg/m3
- mass density (303.15 K, x2 = 0.3187): 1093.73 ± 0.3 kg/m3
- mass density (303.15 K, x2 = 0.3953): 1094.31 ± 0.3 kg/m3
- mass density (303.15 K, x2 = 0.4582): 1094.25 ± 0.3 kg/m3
- mass density (303.15 K, x2 = 0.5473): 1093.11 ± 0.29 kg/m3
- mass density (303.15 K, x2 = 0.6473): 1088.67 ± 0.28 kg/m3
- mass density (303.15 K, x2 = 0.7213): 1081.52 ± 0.26 kg/m3
- mass density (303.15 K, x2 = 0.7997): 1068.31 ± 0.24 kg/m3
- mass density (303.15 K, x2 = 0.8828): 1045.47 ± 0.2 kg/m3
- mass density (303.15 K, x2 = 0.9632): 1013.46 ± 0.15 kg/m3
- mass density (313.15 K, x2 = 0): 1080.34 ± 0.31 kg/m3
- mass density (313.15 K, x2 = 0.0568): 1081.01 ± 0.3 kg/m3
- mass density (313.15 K, x2 = 0.1605): 1082.26 ± 0.3 kg/m3
- mass density (313.15 K, x2 = 0.2252): 1083.1 ± 0.3 kg/m3
- mass density (313.15 K, x2 = 0.3187): 1084.18 ± 0.29 kg/m3
- mass density (313.15 K, x2 = 0.3953): 1084.89 ± 0.28 kg/m3
- mass density (313.15 K, x2 = 0.4582): 1084.95 ± 0.28 kg/m3
- mass density (313.15 K, x2 = 0.5473): 1084.03 ± 0.27 kg/m3
- mass density (313.15 K, x2 = 0.6473): 1079.97 ± 0.26 kg/m3
- mass density (313.15 K, x2 = 0.7213): 1073.28 ± 0.25 kg/m3
- mass density (313.15 K, x2 = 0.7997): 1060.87 ± 0.23 kg/m3
- mass density (313.15 K, x2 = 0.8828): 1039.4 ± 0.19 kg/m3
- mass density (313.15 K, x2 = 0.9632): 1009.19 ± 0.14 kg/m3
- mass density (323.15 K, x2 = 0): 1070.3 ± 0.29 kg/m3
- mass density (323.15 K, x2 = 0.0568): 1071.03 ± 0.29 kg/m3
- mass density (323.15 K, x2 = 0.1605): 1072.41 ± 0.28 kg/m3
- mass density (323.15 K, x2 = 0.2252): 1073.32 ± 0.28 kg/m3
- mass density (323.15 K, x2 = 0.3187): 1074.52 ± 0.27 kg/m3
- mass density (323.15 K, x2 = 0.3953): 1075.37 ± 0.27 kg/m3
- mass density (323.15 K, x2 = 0.4582): 1075.54 ± 0.27 kg/m3
- mass density (323.15 K, x2 = 0.5473): 1074.8 ± 0.26 kg/m3
- mass density (323.15 K, x2 = 0.6473): 1071.08 ± 0.25 kg/m3
- mass density (323.15 K, x2 = 0.7213): 1064.82 ± 0.24 kg/m3
- mass density (323.15 K, x2 = 0.7997): 1053.13 ± 0.21 kg/m3
- mass density (323.15 K, x2 = 0.8828): 1032.81 ± 0.18 kg/m3
- mass density (323.15 K, x2 = 0.9632): 1003.92 ± 0.13 kg/m3
- mass density (333.15 K, x2 = 0): 1060.27 ± 0.27 kg/m3
- mass density (333.15 K, x2 = 0.0568): 1061.04 ± 0.27 kg/m3
- mass density (333.15 K, x2 = 0.1605): 1062.5 ± 0.3 kg/m3
- mass density (333.15 K, x2 = 0.2252): 1063.49 ± 0.26 kg/m3
- mass density (333.15 K, x2 = 0.3187): 1064.79 ± 0.26 kg/m3
- mass density (333.15 K, x2 = 0.3953): 1065.74 ± 0.25 kg/m3
- mass density (333.15 K, x2 = 0.4582): 1066 ± 0.25 kg/m3
- mass density (333.15 K, x2 = 0.5473): 1065.41 ± 0.24 kg/m3
- mass density (333.15 K, x2 = 0.6473): 1062 ± 0.23 kg/m3
- mass density (333.15 K, x2 = 0.7213): 1056.12 ± 0.22 kg/m3
- mass density (333.15 K, x2 = 0.7997): 1045.11 ± 0.2 kg/m3
- mass density (333.15 K, x2 = 0.8828): 1024.92 ± 0.17 kg/m3
- mass density (333.15 K, x2 = 0.9632): 998.73 ± 0.13 kg/m3

SMILES: O [water] + CC#N
- mass density (323.15 K, x1 = 1): 988.03 ± 0.07 kg/m3
- mass density (333.15 K, x1 = 1): 983.19 ± 0.08 kg/m3

SMILES: O [water] + C[S+](C)[O-]
- mass density (323.15 K, x1 = 1): 988.03 ± 0.14 kg/m3
- mass density (333.15 K, x1 = 1): 983.19 ± 0.15 kg/m3
